# Measured values reported in patent publication US20130281506A1, “COMBINATION OF A NON-STEROIDAL ANTI-INFLAMMATORY DRUG WITH AN ANTI-HISTAMINIC DRUG INTENDED FOR OPHTHALMIC USE” (ALLERGAN, INC., priority 2012, published 2013).
# Where a name gives a salt, the structure may show the parent alone.
# Tests used:
# [1] = test system: seasonal allergic conjunctivitis; experiment: Randomized, multi-centric, open label clinical study: efficacy on signs and symptoms (itching, hyperemia, chemosis, mucous discharge); format: in vivo, human; conditions: for mean chemosis score / mean cilliary hyperemia score / mean conjunctival hyperemia score / mean episcleral hyperemia score / mean itching score: score 0-4
# Description: A randomized, multi-centric geographically, open label study to compare the safety and efficacy of the combination of olopatadine hydrochloride 0.1% and ketorolac tromethamine 0.4% w/v ophthalmic solution with olopatadine hydrochloride 0.1% w/v used twice daily for three weeks in adult patients with seasonal allergic conjunctivitis, was completed. The primary objective of this randomized, multi-centric geographically diverse study was to compare the safety and efficacy of the combination of olopatadine and ketorolac with olopatadine in seasonal allergic conjunctivitis. A combination of olopatadine hydrochloride 0.1% w/v and ketorolac tromethamine 0.4% w/v was compared with olopatadine hydrochloride 0.1% w/v alone in the treatment of patients with seasonal allergic conjunctivitis. The test drug was the combination of olopatadine hydrochloride with ketorolac tromethamine compared to olopatadine hydrochloride 0.1% w/v, as three commercially available brands on the market: Winolap®, Opat® and Olo®. These three commercially available brands, as the comparator drug, were provided to the investigators. Any of the three brands of the comparator drug were prescribed by the investigator to the patients per their choice of availability and cost. The patients administered one drop twice daily in each eye for twenty-one days during three weeks. The patients received study medications as well as comparator drug for the entire period. There were five scheduled visits, with screening periods of thirty days and a treatment period of twenty-one days as per protocol. At the end of each visit physicians also rated tolerance and the patient rated acceptability. The efficacy parameters like itching, hyperemia (cilliary, conjunctival, episcleral), chemosis and mucus discharge were compared between groups and scored. The efficacy of the medications was evaluated by comparing the reduction in efficacy parameters, signs and symptoms of allergic conjunctivitis between the treatment groups, based on the twenty-one day period. The efficacy of the study medications was evaluated by comparing the reduction in signs and symptoms of allergic conjunctivitis between the treatment groups. Reduction in the signs and symptoms of allergic conjunctivitis was based on evaluation of efficacy parameters till the end of twenty-one days. For the improvement of allergic conjunctivitis, symptoms like itching, hyperemia, chemosis and mucous discharge were used. The symptoms of allergic conjunctivitis like itching, hyperemia and chemosis were scored as 0, 1, 2, 3 and 4 and mucous discharge was graded as absent or present. [table] Interpretation: •Minimum score: 0; •Maximum score: 4; the higher the score the more severe will be the symptoms of allergic conjunctivitis. In the report, each symptom is graded based on the severity. Efficacy evaluation has been done for first 100 completed cases. The efficacy parameters like itching, hyperemia (cilliary, conjunctival, episcleral), chemosis and mucus discharge were compared between groups.
# [2] = test system: adult patients with seasonal allergic conjunctivitis; experiment: Same clinical study: safety, tolerability and acceptability; format: in vivo, human; conditions: mild transient, no treatment required; observed immediately after instillation of eye drop
# Description: The patients administered one drop twice daily in each eye for twenty-one days during three weeks. The patients received study medications as well as comparator drug for the entire period. There were five scheduled visits, with screening periods of thirty days and a treatment period of twenty-one days as per protocol. At the end of each visit physicians also rated tolerance and the patient rated acceptability.
# At the end of the each visit physicians rated tolerance as Excellent (No adverse drug reactions), Good (Mild adverse reaction not requiring other treatment or necessitating drug withdrawal), Fair (Adverse reactions requiring treatment without hospitalization or necessitating drug withdrawal and Poor (Severe or serious reaction requiring hospitalization and withdrawal of drug) and the patient rated acceptability as Good (No untoward incidence), Fair (Mild adverse reaction not interfering day to day activities) and Poor (Adverse reactions affecting regular day to day activities).
# The safety of the combination of olopatadine-ketorolac was compared with olopatadin. The safety assessment parameters included the number of patients having adverse events, the types of adverse events, and the number of unexpected, severe or serious adverse events in the two arms.
# [3] = test system: seasonal allergic conjunctivitis and rhinoconjunctivitis; conditions: fourth week of treatment; p=0.03; cited from earlier work
# [4] = visit 3, no statistically significant difference
smiles,measurement,setting,value
"CN(C)CC/C=C1/c2ccccc2COc2ccc(CC(=O)O)cc21 [olopatadine, olopatadine hydrochloride]",mean chemosis score,[1]; baseline,1.5±0.99
same,mean cilliary hyperemia score,[1]; baseline,0.94±0.91
same,mean conjunctival hyperemia score,[1]; baseline,2.28±0.83
same,mean episcleral hyperemia score,[1]; baseline,0.84±0.79
same,mean itching score,"[1]; baseline, one drop twice daily in each eye",3±0.67
same,complaints of mucus discharge,[1]; final scheduled visit,all the enrolled patients were free from the complaints of mucus discharge
same,mean chemosis score,[1]; visit 2,1.46±0.95
same,mean cilliary hyperemia score,[1]; visit 2,0.94±0.91
same,mean conjunctival hyperemia score,[1]; visit 2,2.2±0.84
same,mean episcleral hyperemia score,[1]; visit 2,0.84±0.79
same,mean itching score,"[1]; visit 3 (first week), p=0.012 between groups",2±0.60
same,mean cilliary hyperemia score,[1]; visit 3,0.62±0.66
same,mean chemosis score,[1]; [4],0.92±0.72
same,mean conjunctival hyperemia score,[1]; [4],1.38±0.86
same,mean episcleral hyperemia score,"[1]; visit 3, p=0.43 printed",0.62±0.63
same,mean itching score,"[1]; visit 4 (second week), p=0.009 between groups",1.28±0.67
same,mean conjunctival hyperemia score,"[1]; visit 4 (second week), p=0.02 between groups",0.8±0.60
same,mean chemosis score,"[1]; visit 4 (second week), p=0.029 between groups",0.54±0.57
same,mean episcleral hyperemia score,[1]; visit 4,0.36±0.56
same,mean cilliary hyperemia score,"[1]; visit 4, p=0.06 between groups",0.28±0.49
same,mean chemosis score,"[1]; visit 5 (third week), p=0.00004 between groups",0.3±0.52
same,mean itching score,"[1]; visit 5 (third week), p=0.00009 between groups",0.78±0.58
same,mean conjunctival hyperemia score,"[1]; visit 5 (third week), p=0.0003 between groups",0.5±0.54
same,mean episcleral hyperemia score,[1]; visit 5,0.18±0.38
same,mean cilliary hyperemia score,"[1]; visit 5, p=0.52 between groups",0.08±0.34
same,number of patients experiencing an adverse event,[2],three
same,chemosis compared to placebo,[3],significant decrease
